The test addresses 5-hydroxytryptamine receptor 2A (Homo sapiens, UniProt P28223). Kind of test: Ability to displace [3H]ketanserin from CHO cells expressing human 5-hydroxytryptamine 2A receptor was determined. The test is classed as cell-based.

As usually defined, the Ki is a dissociation constant, usually derived from enzyme kinetics or from competition with a known ligand. Read a low Ki as tighter binding.

Chain of 5-hydroxytryptamine receptor 2A (P28223 whole entry): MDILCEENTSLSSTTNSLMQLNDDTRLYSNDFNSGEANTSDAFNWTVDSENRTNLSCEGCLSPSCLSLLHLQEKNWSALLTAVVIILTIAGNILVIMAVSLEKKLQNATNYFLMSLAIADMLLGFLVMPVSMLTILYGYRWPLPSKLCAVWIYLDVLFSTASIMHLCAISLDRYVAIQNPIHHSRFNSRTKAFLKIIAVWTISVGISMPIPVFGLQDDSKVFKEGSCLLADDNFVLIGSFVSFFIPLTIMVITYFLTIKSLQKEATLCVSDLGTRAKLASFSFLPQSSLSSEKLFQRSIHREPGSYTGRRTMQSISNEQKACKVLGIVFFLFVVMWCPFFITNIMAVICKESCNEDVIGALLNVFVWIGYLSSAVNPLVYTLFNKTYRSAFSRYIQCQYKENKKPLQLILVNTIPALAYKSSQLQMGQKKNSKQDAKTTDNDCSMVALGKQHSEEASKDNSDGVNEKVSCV

Compound `c1ccc(-c2[nH]c3ccccc3c2CCN2CCCCC2)cc1` returned a Ki of 2.7 nM.

The record behind these values is ChEMBL document CHEMBL1132835, “Solid-phase synthesis of 2,3-disubstituted indoles: discovery of a novel, high-affinity, selective h5-HT2A antagonist” (Bioorg Med Chem Lett, 2000).
